In PubChem BioAssay (NCI):
Where “and” joins values, the source holds several entries; their conditions need not be identical. Equal values may be shown once.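 Interpolation was linear, between the two tested concentrations surrounding the appropriate level; five concentrations were tested over 48 hours in 96-well plates. GI50 = concentration required for 50% inhibition of growth. Definition used: TGI = concentration required for complete inhibition of growth.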

What was measured:
Assay in all cases: inhibition of tumour cell growth, NCI panel, 48 h
[1] = system: SK-OV-3 ovarian
[2] = system: HOP-62 NSCLC
[3] = system: 786-0 renal
[4] = system: A549 NSCLC
[5] = system: UACC-257 melanoma
[6] = system: IGROV1 ovarian
[7] = system: OVCAR-8 ovarian
[8] = system: BT-549 breast
[9] = system: MOLT-4 leukemia
[10] = system: CAKI-1 renal

Compound	TGI [1] [µM]	TGI [2] [µM]	TGI [3] [µM]	TGI [4] [µM]	TGI [5] [µM]	TGI [6] [µM]	TGI [7] [µM]	TGI [8] [µM]	TGI [9] [µM]	TGI [10] [µM]	GI50 [1]	GI50 [2] [µM]	GI50 [3] [µM]	GI50 [4] [µM]	GI50 [5] [µM]	GI50 [6]	GI50 [7] [µM]	GI50 [8] [µM]	GI50 [9] [µM]	GI50 [10] [µM]
CCCCCC/C=C\CCCCCCCCCC1=C(CN2CCN(C)CC2)C(=O)C=C(OC)C1=O	25.9	30.7	2.9	28.6	28.6	18.3	17	15.5	1.65	7.03	–	–	–	–	–	–	–	–	–	–
CC1=CC(C)(C)NN1C1=NS(=O)(=O)c2ccccc2N1C	> 100	> 100	> 100	> 100	> 100	> 100	> 100	> 100	> 100	> 100	–	–	–	–	–	–	–	–	–	–
Cn1cc(-c2cnn3c(N)c(Br)c(C4CCCNC4)nc23)cn1 (centres undefined)	66.8	> 100	60.6	> 100	60.6	> 100	> 100	32.5	23.2	> 38.5	4.06 µM	6.69	1.62	17.3	17.8	6.72 µM	5.87	0.922	0.575	5.43
C/C(=C(\c1ccc(OCCN2CCCCCC2)cc1)c1ccc(OC(=O)c2ccccc2)cc1)c1ccc(Cl)cc1	9.52	8.95	7.73	10.9	10.4	10.7	10.5	8.99	10.9	9.27	4.41 µM	4.35	3.58	4.16	5.34	4.36 µM	5.15	4.56	2.25	3.86
C/C=C1/CC(C)C(C)(O)C(=O)OCC2C(O)CN3CCC(OC1=O)C23 (centres undefined)	> 100	> 100	> 100	> 100	> 100	> 100	> 100	> 100	> 100	> 100	–	–	–	–	–	–	–	–	–	–
CCCCCCCCCCCCOC1C(CNC(=O)C2OC3OC(C)(C)OC3C2NC(=O)CN2CCN(c3ccc(OC)cc3)CC2)OC2OC(C)(C)OC21 (centres undefined)	17.7	20.5	24	18.2	12.7	16.4	12.9	17.4	10.8	24.5	5.87 µM	5.07	11.8	3.18	3.83	4.24 µM	3.91	6.19	3.12	12.1
CCN(Cc1cccc(Cl)c1)c1ccc(CO)c(Cl)c1	18.2	16.3	20.9	17	0.404	1.62	23.3	24.3	34.7	10.1	5.62 µM	2.09	5.96	2.47	0.134	0.111 µM	10.5	11.5	12.1	0.724
Cn1c2c(c3c(Cl)nncc31)Cc1ccccc1-2	75.1	> 100	> 100	> 100	> 100	> 100	> 100	64.9	–	67.2	28.6 µM	25.2	23.6	20.6	48.7	48.9 µM	25.5	20.7	3.12	16.9
CC[C@@H](C)/C=C(C)/C=C/C(=O)c1c(O)c(-c2ccc(O)cc2)cn(O)c1=O	21.7	14.7	5.17	12	6.95	11.4	12	16.1	15.7	1.55	0.642 µM	0.492	0.361	1.31	0.317	0.421 µM	0.341	0.487	0.31	0.29
O=C(CCN1CCCCC1)N1CCc2c([nH]c3ccccc23)C1c1cccnc1 (centres undefined)	> 100	> 100	82.9	> 100	34.7	> 100	> 100	> 86.2	> 100	> 100	–	–	–	–	–	–	–	–	–	–
CCNC(=O)Oc1ccc(/C(=C(/C)Cc2ccc(OC)cc2)c2ccc(OCCN(CC)CC)cc2)cc1	13.3	4.14	2.88	3.62	3.42	6.87	3.59	4.16	9.71	3.84	2.84 µM	1.68	1.39	1.87	1.79	2.59 µM	1.8	1.73	2.64	1.64
Oc1c(Cl)cc(Cl)c2ccc(Cn3cc(-c4ccc(C(F)(F)F)cc4)nn3)nc12	33	35.2	4.59	38.6	3.3	3.19	11.5	5.22	8.8	2.97	17.7 µM	16.4	1.82	16.5	1.23	1.41 µM	2.75	1.94	0.825	1.25
NS(=O)(=O)c1cc(C(=O)O)c(O)c2ccccc12	> 100	> 100	> 100	> 100	> 100	> 100	> 100	> 100	> 100	> 100	–	–	–	–	–	–	–	–	–	–
COc1cc(C(=O)c2cnc(-c3cccc4[nH]ccc34)[nH]2)cc(OC)c1OC	< 0.01	20	> 100	> 100	> 100	> 100	48.2	22	> 100	> 100	0.0542 µM and < 0.01 µM	< 0.01	–	–	11.9	0.0966 µM and < 0.01 µM	–	–	–	< 0.01
CSc1nc2c(c(=O)n1C)CN(C1CCCCC1)C(=O)C(c1ccccc1)N2 (centres undefined)	> 100	> 100	> 100	> 100	> 100	> 100	> 100	49.4	39	> 100	76.8 µM	> 100	68.3	38.4	38.2	34.6 µM	46.9	13.2	12.2	26.9
CC(=O)N1N=C(c2ccc(Nc3nc(Nc4ccc(F)cc4)nc(Nc4ccc(F)cc4)n3)cc2)CC1c1ccc(N(C)C)cc1 (centres undefined)	53.7	26	23.3	26.8	23.5	30.6	10.1	54.8	5.7	93.1	15.5 µM	5.98	5.09	4.58	7.14	7.09 µM	2.72	11	1.57	15.6
COC(=O)c1oc2c(C(=O)/C=C/c3ccc(OC)cc3)c(OCCN(C)C)ccc2c1C	17.8	38.7	22.3	23	29.2	21.4	21.5	16	7.47	20.2	5.14 µM	20.5	9.4	5.08	14.1	5.99 µM	4.96	4.88	2.59	6.95
CO[C@H]1CC(O[C@@H]2/C(C)=C/C[C@@H]3C[C@@H](C[C@]4(CC[C@H](C)[C@@H](C5CCCCC5)O4)O3)OC(=O)[C@@H]3C=C(C)/C(=N/O)[C@H]4OC/C(=C\C=C\[C@@H]2C)[C@]43O)O[C@@H](C)C1O (some centres undefined)	2.86	1.73	2.62	2.66	2.55	2.69	2.41	3.41	2.53	3.32	1.17 µM	0.887	1.14	0.935	0.987	1.07 µM	0.962	1.17	1.12	1.14
CCN(CC)CCCC(C)N/C(=C1\C(=O)NC(=O)\C1=C(/NC(C)CCCN(CC)CC)c1cccc(OC)c1)c1cccc(OC)c1 (centres undefined)	3.92	2.27	2.64	1.8	1.58	2.35	3.09	3.82	2.09	2.52	1.31 µM	0.815	0.833	0.819	0.842	0.844 µM	0.515	1.31	0.312	1.03
